Assay results: patent publication US12662676B2, “Aptamer nucleic acid molecule, and complex and application thereof” (EAST CHINA UNIVERSITY OF SCIENCE AND TECHNOLOGY, priority 2019, dated 2026)

Test: Fluorescence activation of III-3 fluorophore by Pepper aptamers and mutants
Type: biochemical
Details: 1 μM III-3 with 5 μM RNA
Procedure: Preparation of Pepper or Pepper mutant aptamer according to the commonly used experimental method (1). 5 μM aptamer and 1 μM fluorophore were incubated in the detection buffer (40 mM HEPES, pH 7.4, 125 mM KCl, 5 mM MgCl2, 5% DMSO). The maximal excitation and emission peaks of the aptamer-fluorophore complexes were determined using a Synergy Neo2 multifunctional microplate reader. The fluorescence intensities of the aptamer-fluorophore complexes at the maximal excitation and emission peaks were determined using a Synergy Neo2 multifunctional microplate reader. The control sample (1 μM fluorophore without aptamer) was also measured under the same conditions. Then the ratios of fluorescence intensity were calculated. For example, the fluorescence maximal excitation and emission peaks of the complex of 5 μM F30-Pepper-2 and 1 μM III-3 fluorophore are 485 nm and 530 nm, respectively. The fluorescence intensity of the complex at 485±10 nm excitation and 530 nm±10 nm emission was 36,000, the fluorescence intensity of the control sample (1 μM III-3 fluorophore only) under the same detection conditions was 10. Thus, the activation ratio of F30-Pepper-2 aptamer on III-3 fluorophore was 3,600-fold.
In order to detect the fluorescence activation of III-3 fluorophore by different Pepper mutant, the Pepper-1 sequence in F30-Pepper-1 was mutated according to Table 1. […] 1 μM III-3 was incubated with […] RNA and their fluorescence activation folds were determined according to the commonly used experimental method (5). […] In summary, many Pepper mutants containing single and multiple mutants still retain the ability to activate the fluorescence of III-3 fluorophore.
In order to detect the activation of III-3 by modified Pepper, base-modified Pepper-3 was synthesized (SEQ ID NO: 6, the underlined nucleotides in […] GGCC contain deoxyribonucleotide bases) and Pepper-4 (SEQ ID NO: 7, the underlined nucleotides in […] GGGCC contain 2′-F modification) (synthesized by Shanghai GenePharma Co., Ltd), which contain deoxyribonucleotides replacement (shaded bases in FIG. 5A) or 2′-F modification (shaded bases in FIG. 5B) in the stem-loop region of Pepper. Detection of the fluorescence activation of III-3 fluorophore by these modified Peppers was carried out according to the commonly used experimental method (5).

[1] = Activation of III-3 by Pepper mutants with single mutation
[2] = Activation of III-3 by Pepper mutants with multiple mutations

Substance | Activation folds [1] [folds] | Activation folds [2] [folds]
C30U: F30-Pepper-1 mutant aptamer (NCCAAUCGUGGCGUGUCGNNNACUGGCGCUGN; RNA, backbone, methylation of C and the base at N not given here; Pepper aptamer mutant embedded in F30 scaffold) [Compound C30U] | 2587 | 
U14A: F30-Pepper-1 mutant aptamer (NCCAAUCGUGGCGAGUCGNNNACUGGCGCCGN; RNA, backbone and the base at N not given here; Pepper variant inserted in F30 scaffold RNA) [Compound U14A] | 1524 | 
C2A/G31U: F30-Pepper-1 mutant aptamer (NACAAUCGUGGCGUGUCGNNNACUGGCGCCUN; Pepper mutant embedded in F30 scaffold, chemistry not given here, further chemistry not given here) |  | 3365
C2A/G31U/G10U/C30A: F30-Pepper-1 mutant aptamer (NACAAUCGUUGCGUGUCGNNNACUGGCGCAUN; Pepper mutant embedded in F30 scaffold, chemistry not given here, further chemistry not given here) |  | 3024
C2G/G31C/G10U/C30A: F30-Pepper-1 mutant aptamer (NGCAAUCGUUGCGUGUCGNNNACUGGCGCACN; Pepper mutant embedded in F30 scaffold, chemistry not given here, further chemistry not given here) |  | 3125
C2A/G31U/G10A/C30U: F30-Pepper-1 mutant aptamer (NACAAUCGUAGCGUGUCGNNNACUGGCGCUUN; Pepper mutant embedded in F30 scaffold, chemistry not given here, further chemistry not given here) |  | 3105
C12U: F30-Pepper-1 mutant aptamer (NCCAAUCGUGGUGUGUCGNNNACUGGCGCCGN; Pepper mutant embedded in F30 scaffold, chemistry not given here, further chemistry not given here) [Compound C12U] | 2268 | 
C3A: F30-Pepper-1 mutant aptamer (NCAAAUCGUGGCGUGUCGNNNACUGGCGCCGN; RNA, backbone, methylation of C and the base at N not given here; Pepper aptamer mutant embedded in F30 scaffold) [Compound C3A] | 2484 | 
U6A: F30-Pepper-1 mutant aptamer (NCCAAACGUGGCGUGUCGNNNACUGGCGCCGN; RNA, backbone and the base at N not given here; Pepper variant inserted in F30 scaffold RNA) [Compound U6A] | 1872 | 
C2G/G31C/G10A/C30U/U6G/C27U: F30-Pepper-1 mutant aptamer (NGCAAGCGUAGCGUGUCGNNNACUGGUGCUCN; RNA, backbone, methylation of C and the base at N not given here; Pepper aptamer mutant embedded in F30 scaffold) |  | 758
C7U: F30-Pepper-1 mutant aptamer (NCCAAUUGUGGCGUGUCGNNNACUGGCGCCGN; RNA, backbone, methylation of C and the base at N not given here; Pepper aptamer mutant embedded in F30 scaffold) [Compound C7U] | 2268 | 
